Measured values from patent publication US7709533B2, “Imines as ion channel modulators” (Icagen, Inc., priority 2005, dated 2010).

The compounds below were run against T1, human intermediate-conductance, calcium-activated K+ channels (h-IK1) (Homo sapiens, UniProt O15554) (assay: Rubidium efflux assay (86Rb+ efflux, CHO-K1 cells expressing h-IK1)). Details: hIK1 in CHO-K1 cells; 86Rb+ efflux stimulated with ionomycin; drug 0.01-30 μM, 6 min preincubation, 10 min efflux; read-out: IK1 Inhibitory Activity.
T1 construct: expressed in transfected cells; host or cells: CHO-K1 (ATCC CCL-61), kept under G-418 selection
Assay type: cell-based
Procedure: CHO-K1 cells (American Type Culture Collection, CCL-61) expressing human intermediate-conductance, calcium-activated K^+ channels (h-IK1) are cultured in Ham's F-12 medium (HyClone) supplemented with 10% heat inactivated fetal bovine serum (Nova-Tech) and 400 μg/mL G-418 (Geneticin, Life Technologies), in an incubator at 37° C. with a humidified atmosphere of 5% CO2. Cells are typically sub-cultured twice per week. When the culture flask reaches 70%-90% confluency, the culture medium is removed, cells are rinsed twice with calcium and magnesium-free Dulbecco's phospate buffed saline (PBS) and a 0.05% trypsin/0.5 mM EDTA in HBSS solution is added until cells begin to round up (typically 2-5 min). Twenty four hours prior to the experiment, cells are removed from the culture flask and resuspended in Ham's F-12 medium supplemented with 10% heat inactivated fetal bovine serum, 50 μg/mL streptomycin, 50 U/mL penicillin, 10 mM HEPES, pH 7.2, and plated on 96 well, cell culture treated, flat bottomed trays (TPP 96, 4×10^6 cells per 96 well plate; 100 μL/well). Cells are loaded with ^86Rb^+ by incubating the cells overnight in culture medium containing 1 μCi/ml ^86RbCl (Perkin-Elmer) using a Labsystems Multidrop. On the day of the experiment, Culture media is removed and the cells are washed 4 times with 100 μL per well of zero Ca^2+ Earl's Balanced Salt Solution (EBSS)[composition (mM): NaCl (138), KCl (5.4), MgCl2 (1), glucose (10), HEPES (10), pH 7.4 with 10N NaOH]. Cells were preincubated with drug (0.01-30 μM) in low Ca^2+ EBSS, [composition (mM): NaCl (138), CaCl2 (0.25), KCl (5.4), MgCl2 (1), glucose (10), HEPES (10), pH 7.4 with 10N NaOH] for 6 min. ^86Rb^+ efflux is stimulated by exposing cells to regular EBSS [composition (mM): NaCl (138), CaCl2 (1.8), KCl (5.4), MgCl2 (1), glucose (10), HEPES (10), pH 7.4 with 10N NaOH] supplemented with […] ionomycin (Calbiochem), in the continued presence of drug. After a 10 min efflux period, the EBSS/ionomycin solution is removed from the cells and the ^86Rb^+ content determined by Cherenkov counting (Wallac 1450 Microbeta Trilux liquid scintillation and luminescence counter). Cells are then lysed with 100 μL 0.1% SDS solution per well, and the ^86Rb^+ content of the lysate determined. Percent ^86Rb^+ efflux is calculated according to the following formula: (^86Rb^+ content in EBSS/(^86Rb^+ content in EBSS+^86Rb^+ content of the lysate))×100.

IC50 [µM] | SMILES
0.5 to 1 | N=C(NN)C(c1ccccc1)(c1ccc(F)cc1)c1ccc(F)cc1 [Example 9, 2,2-Bis-(4-fluoro-phenyl)-N-amino-2-phenyl-acetamidine]
1 to 10 | COC(=N)C(c1ccc(F)cc1)(c1ccc(F)cc1)c1ccc(F)cc1 [Example 27, 2,2,2-Tris-(4-fluoro-phenyl)-acetimidic acid methyl ester]
1 to 10 | CON=C(C)C(c1ccccc1)(c1ccccc1)c1ccccc1 [Example 26, 1,1,1-Triphenyl-propan-2-one O-methyl-oxime]
1 to 10 | CONC(=N)C(c1ccc(F)cc1)(c1ccc(F)cc1)c1ccc(F)cc1 [Example 19, 2,2,2-Tris-(4-fluoro-phenyl)-N-methoxy-acetamidine]
0.5 to 1 | N=C(NO)C(c1ccccc1)(c1ccccc1)c1cccc(F)n1 [Example 13, 2-(6-Fluoro-pyridin-2-yl)-N-hydroxy-2,2-diphenyl-acetamidine]
< 0.5 | N=C(NO)C(c1ccc(F)cc1)(c1ccc(F)cc1)c1ccc(F)cc1 [Example 3, 2,2,2-Tris-(4-fluoro-phenyl)-N-hydroxy-acetamidine]
1 to 10 | N=C(N)C(c1cccc(F)n1)(c1cccc(F)n1)c1cccc(F)n1 [Example 15, 2,2,2-Tris-(6-fluoro-pyridin-2-yl)-acetamidine]
1 to 10 | N=C(N)C(c1ccccc1)(c1ccccc1)c1ccccc1 [Example 22, 2,2,2-Triphenyl-acetamidine]
1 to 10 | Cc1nc(C(c2ccccc2)(c2ccccc2)c2cccc(F)n2)no1 [Example 16, 2-Fluoro-6-[(5-methyl-[1,2,4]oxadiazol-3-yl)-diphenyl-methyl]-pyridine]
1 to 10 | CN=C(OC)C(c1ccccc1)(c1ccc(F)cc1)c1ccc(F)cc1 [Example 29, 2,2-Bis-(4-fluoro-phenyl)-N-methyl-2-phenyl-acetimidic acid methyl ester]
> 10 | N=C(NO)C(c1ccccc1)(c1ccc(O)cc1)c1ccc(O)cc1 [Example 32, N-Hydroxy-2,2-bis-(4-hydroxy-phenyl)-2-phenyl-acetamidine]
1 to 10 | Cc1ccc(C(C(=N)N)(c2cccc(F)c2)c2cccc(F)c2)cn1 [Example 17, 2,2-Bis-(3-fluoro-phenyl)-2-(6-methyl-pyridin-3-yl)-acetamidine]
< 0.5 | CON=CC(c1ccccc1)(c1ccccc1)c1ccccc1Cl [Example 7, (2-Chloro-phenyl)-diphenyl-acetaldehyde O-methyl-oxime]
< 0.5 | ON=CC(c1ccccc1)(c1ccccc1)c1ccccc1Cl [Example 6, (2-Chloro-phenyl)-diphenyl-acetaldehyde oxime]
1 to 10 | CC(=NN)C(c1ccccc1)(c1ccccc1)c1ccccc1 [Example 25, (1-Methyl-2,2,2-triphenyl-ethylidene)-hydrazine]
1 to 10 | COc1ccc(C(C(=N)NO)(c2ccccc2)c2ccc(OC)cc2)cc1 [Example 23, N-Hydroxy-2,2-bis-(4-methoxy-phenyl)-2-phenyl-acetamidine]
< 0.5 | N=C(NO)C(c1ccccc1)(c1ccc(F)cc1)c1ccccc1F (centres unmarked) [Example 1, 2-(2-Fluoro-phenyl)-2-(4-fluoro-phenyl)-N-hydroxy-2-phenyl-acetamidine]
< 0.5 | N=C(NO)C(c1ccccc1)(c1ccc(F)cc1)c1ccc(F)cc1 [Example 2, 2,2-Bis-(4-fluoro-phenyl)-N-hydroxy-2-phenyl-acetamidine]

IC50 [µM] | SMILES
1 to 10 | COC(=N)C(c1ccccc1)(c1ccc(F)cc1)c1ccc(F)cc1 [Example 28, 2,2-Bis-(4-fluoro-phenyl)-2-phenyl-acetimidic acid methyl ester]
> 10 | CCON=C(C)C(c1ccccc1)(c1ccccc1)c1ccccc1 [Example 33, 1,1,1-Triphenyl-propan-2-one O-ethyl-oxime]
0.5 to 1 | N=C(NN)C(c1ccc(F)cc1)(c1ccc(F)cc1)c1ccc(F)cc1 [Example 10, 2,2,2-Tris-(4-fluoro-phenyl)-N-amino-acetamidine]
1 to 10 | N=C(NO)C(c1cccc(F)c1)(c1cccc(F)n1)c1cccc(F)n1 [Example 14, 2-(3-Fluoro-phenyl)-2,2-bis-(6-fluoro-pyridin-2-yl)-N-hydroxy-acetamidine]
< 0.5 | CCONC(=N)C(c1ccc(F)cc1)(c1ccc(F)cc1)c1ccc(F)cc1 [Example 4, N-Ethoxy-2,2,2-tris-(4-fluoro-phenyl)-acetamidine]
1 to 10 | N=C(N)C(c1ccc(F)cc1)(c1ccc(F)cc1)c1ccc(F)cc1 [Example 18, 2,2,2-Tris-(4-fluoro-phenyl)-acetamidine]
< 0.5 | N=C(NO)C(c1ccc(F)cc1)(c1ccc(F)cc1)c1ccccc1Cl [Example 5, 2-(2-Chloro-phenyl)-2,2-bis-(4-fluoro-phenyl)-N-hydroxy-acetamidine]
> 10 | COc1ccc(C(C(=N)NO)(c2ccc(OC)cc2)c2ccc(OC)cc2)cc1 [Example 31, N-Hydroxy-2,2,2-tris-(4-methoxy-phenyl)-acetamidine]
< 0.5 | N=C(NO)C(c1ccccc1)(c1ccccc1)c1ccccc1Cl [2-(2-Chloro-phenyl)-N-hydroxy-2,2-diphenyl-acetamidine]
0.5 to 1 | COc1ccc(C(C(=N)NO)(c2ccccc2)c2ccccc2)cc1 [Example 12, N-Hydroxy-2-(4-methoxy-phenyl)-2,2-diphenyl-acetamidine]
1 to 10 | N=C(N)C(c1ccccc1)(c1ccc(F)cc1)c1ccc(F)cc1 [Example 21, 2,2-Bis-(4-fluoro-phenyl)-2-phenyl-acetamidine]
> 10 | CC(=NO)C(c1ccccc1)(c1ccccc1)c1ccccc1 [Example 34, 1,1,1-Triphenyl-propan-2-one oxime]
1 to 10 | CC(C)ONC(=N)C(c1ccc(F)cc1)(c1ccc(F)cc1)c1ccc(F)cc1 [Example 20, 2,2,2-Tris-(4-fluoro-phenyl)-N-isopropoxy-acetamidine]
1 to 10 | N=C(NO)C(c1ccccc1)(c1ccccc1)c1ccc(O)cc1 [Example 24, N-Hydroxy-2-(4-hydroxy-phenyl)-2,2-diphenyl-acetamidine]
> 10 | N=C(NO)C(c1cccc(F)n1)(c1cccc(F)n1)c1cccc(F)n1 [Example 30, 2,2,2-Tris-(6-fluoro-pyridin-2-yl)-N-hydroxy-acetamidine]
< 0.5 | CONC(=N)C(c1ccccc1)(c1ccc(F)cc1)c1ccc(F)cc1 [Example 8, 2,2-Bis-(4-fluoro-phenyl)-N-methoxy-2-phenyl-acetamidine]
0.5 to 1 | N=C(NO)C(c1ccccc1)(c1ccccc1)c1ccccc1 [Example 11, N-Hydroxy-2,2,2-triphenyl-acetamidine]
